We go through two substances from paper PMC6310865 (Proceedings of the National Academy of Sciences of the …, 2018).

The subject of the assay is CD4+ T cells. Format: cell-based, human. As to conditions: all cases versus controls; […].

Regarding “NP17–31: nucleoprotein epitope, PR8 specific (GERQNATEIRASVGK)”, the “Tetramer-positive CD4+ T cells in T1N cases versus DQ0602 controls” value is recorded as “significant overabundance”.

“NP261–275: nucleoprotein epitope shared between A/California/07/2009 and PR8 (RSALILRGSVAHKSC; UniProt P03466 261-275, looked up, fragment)”: the “Tetramer-positive CD4+ T cells in T1N cases versus DQ0602 controls” value is “little to no significant differences”.
